Measurements reported in publication PMC10021052, “Novel multivalent S100A8 inhibitory peptides attenuate tumor progression and metastasis by inhibiting the TLR4-dependent pathway” (Cancer Gene Therapy, 2023).
“Also recorded” adds a separate entry of the source.

Assays:
[1] = tested on: MDSCs; assay: MDSCs in LLC tumor-bearing mice; assay type: in vivo, C57BL/6J mice; settings: peripheral blood of LLC-tumor-bearing mice; *P < 0.05 vs control
[2] = tested on: subcutaneous SW480 tumors; assay: Immunohistochemistry of subcutaneous SW480 tumors: proliferation and caspase-3; assay type: in vivo, Balb nu/nu mice; settings: Supplementary Fig. 2
Experimental: To immunostain tumor vasculatures, the cryo sections (6 µm) obtained from frozen primary tumors, were incubated with anti-CD31 (BD Pharmingen, Cat No. 550274), and/or anti-α-SMA-Cy3 (Sigma-Aldrich, Cat No. C6198) followed by AlexaFlour 488-conjugated rat IgG secondary antibodies (Thermo Fisher Scientific) were used to visualize the signals by a confocal microscopy (LSM-710; Carl Zeiss). DAPI staining was used for nuclear staining. For immunohistochemistry, the paraffin-embedded sections were cut 4 µm thick and then deparaffinized, rehydrated and then treated for antigen retrieval. The sections were incubated with the indicated antibody overnight, followed by incubation with ImmPRESS HRP Reagent (Vector, Newark, CA). ImmPACT DAB (Vector) was used for visualization of the signals. The images were captured by BZ-X800 (Keyence, Osaka, Japan).

[3] = tested on: MC38 colorectal cancer cells; assay: Tumor suppression in MC38 model; assay type: in vivo, mouse; settings: with anti-PD-1 antibody, Supplementary Fig. 3B
Text: Because S100A8 inhibitory peptides target S100A8-TLR4/MD-2, which plays a role in innate immunity, the complete functional activities of S100A8 inhibitory peptides are expected to be observed in immunocompetent models. To date, syngeneic models are one of the only options to test physiological interactions between tumors and immune cells. […] LLC cells were identified as non-responders to anti-PD-1/programmed death-ligand 1 (PD-L1) therapy. […] We then examined the effect of divalent peptide3A5 in mouse MC38 colorectal cancer cells used as anti-PD-1 responder cells. We previously confirmed that MC38 endogenously expressed TLR4/MD-2 [8].

[4] = tested on: SW480 cells; assay: ELISA, IL-8 and VEGF secretion of SW480 cells; assay type: cell-based, human; settings: peptide pretreatment, S100A8 24 h, supernatant ELISA; *P < 0.05 vs S100A8
Experimental: S100A8 recombinant protein was purified as previously described. These proteins were immobilized on Maxisorp plates (Thermo Fisher Scientific, Waltham, MA, USA), followed by blocking with protein-free blocking buffer (Thermo Fisher Scientific). TLR4/MD-2 recombinant proteins with various concentrations of candidate peptides were then added to the indicated S100A8-immobilized ELISA plates for 2 h. The plates were washed, incubated with anti-TLR4 antibody, and HRP-conjugated secondary antibody, followed by the addition of substrate. The reaction was stopped by addition a 2N H2SO4 solution. Absorbance OD450/OD650 was measured using a microplate reader (Thermo Fisher Scientific). Maxisorp plates were also used for peptide coating. After blocking with protein-free blocking buffer, the coated plates were washed, and TLR4/MD-2 recombinant protein (2 µg/ml) was added to each well. The plates were incubated with a TLR4 antibody followed by horseradish peroxidase (HRP)-labeled anti-rabbit IgG. For detection of IL8 and VEGF in culture supernatants, SW480 cells were pretreated with the indicated peptides, and followed by stimulation with S100A8 for 24 h. The amount of interleukin-8 (IL-8) or VEGF in the supernatants were analyzed by ELISA kits (R&D Systems, Mineapolis, MN) according to the manufacturer’s instructions.

[5] = tested on: tumor cells and macrophages; assay: Cytokine/chemokine induction in tumor cells and macrophages; assay type: cell-based; settings: possible mechanism scheme, Fig. 7I
[6] = tested on: SW480-transplanted xenograft; assay: Tumor growth in SW480-transplanted xenograft model; assay type: in vivo, Balb nu/nu mice; settings: every 3 days; for tumor growth, divalent peptide3A5 monotherapy: SW480 xenograft, various doses, n = 5–6 mice per group; for tumor growth, combination with 5-FU: divalent peptide3A5 5 mg/kg i.p. + 5-FU 20 mg/kg i.p.
[7] = tested on: PKH26-labeled LLC cells; assay: Lung dissemination of PKH26-labeled LLC cells in TCM-sensitized mice; assay type: in vivo, C57BL/6J mice; settings: 10 mg/kg i.p. 1 h before last TCM injection; lungs 16 h after cells; 5–6 mice per group; *P < 0.05 vs control
[8] = tested on: p38 and p65 (NF-κB) in SW480 cells; assay: Western blotting, S100A8-induced phosphorylation of p38 and p65 in SW480 cells; assay type: cell-based; settings: 2.5 µM pretreatment, human S100A8 30 min
Experimental: Cells were lysed in lysis buffer (50 mM Tris-HCl [pH 7.4], 150 mM NaCl, 5 mM Na4P2O7, 10 mM β-glycerophosphate, 25 mM NaF, 1 mM EDTA, 1 mM EGTA, 1 mM Na3VO4, and 1% [v/v] Triton X-100) containing the cOmplete^TM Mini protease inhibitor cocktail (Roche Diagnostics, Indianapolis, IN, USA) as described previously. Cell lysates (20 µg) were separated using SDS-PAGE and transferred to an Immun-Blot PVDF membrane (Bio-Rad, Hercules, CA, USA). After blocking with Blocking One or Blocking One-P (Nacalai tesque, Kyoto, Japan), membranes were probed with the indicated antibodies, followed by HRP-labeled anti-rabbit IgG and anti-mouse IgG (GE Healthcare). Signals were visualized using Immobilon Western HRP Substrate (Millipore, Billerica, USA).
Fig. 4 Improvement of competitive inhibition activity by divalent peptide3A5. A The binding capacity was measured at the indicated concentration using an ELISA-based assay. Similar results were obtained in three independent experiments. B SW480 cells were pretreated with 2.5 µM of divalent peptide3A5, and then stimulated with human S100A8 recombinant protein. After 30 min, cell lysates were subjected to western blotting using the indicated antibody. The divalent peptide#3 or peptide3A5 reduced the expression of S100A8-mediated IL-8 (C) and VEGF (D) induction. […]

[9] = tested on: LLC tumor; assay: Tumor growth in LLC tumor-bearing mice; settings: *P < 0.05 vs control; for LLC tumor growth, monotherapy: 10 mg/kg i.p. every 3 days, five mice per group
Text: Balb nu/nu or C57BL/6J mice were purchased from Clea Japan Inc. (Tokyo, Japan). Mice were used for experiments at 2–3 months of age. For SW480 transplanted xenograft model, SW480 cells were subcutaneously implanted into male Balb nu/nu mice. […] For generation of the Lewis lung cancer implantation mouse model, LLC cells were subcutaneously implanted into male C57BL/6J mice. […] Anti-PD-1 antibodies (Biolegend, San Diego, CA, USA) were used for combination therapy. To determine the tumor volume, the longitudinal diameter (length) and transverse diameter (width) were determined. Tumor volume based on measurements by Vernier calipers was calculated as tumor volume = ½ (length × width^2). For in vivo S100A8 stimulation, C57BL/6J mice were intravenously injected with mammalian-derived S100A8. Four hours after the i.v. injection, mice were sacrificed, and minced mouse lungs were digested with collagenase/dispase/DNase solution. Collected cells were incubated with anti-CD11b-PE (BD Bioscience), anti-Ly6G-FITC (BD Bioscience), and anti-Ly6C-APC (BD Bioscience) antibodies, and analyzed by a flow cytometry (Cytomics FC500; Beckman Coulter, Brea, CA, USA). […] After 24 h, PKH26 (Sigma-Aldrich)-fluorescent-labeled LLC cells were intravenously injected into TCM-stimulated C57BL6J mice. The mice were sacrificed after 16 h, and minced mouse lungs were digested with collagenase/dispase/DNase solution. The recruitment of MDSCs or PKH-26 labeled tumor cells in the lungs was determined by flow cytometry (CytoFlex; Beckman Coulter).
Briefly, LLC cells were implanted s.c. into C57BL/6 J mice. […] Tumor volumes for individual mice were determined at the indicated time points. Each group included five mice. […] Tumor size was determined at the indicated time points. […] Each group included 5–6 mice. The mice were administered tumor conditioned medium once daily for five consecutive days. […] The PKH-26 labeled LLC tumor cells were injected intravenously, the mice were sacrificed, and the cell number was analyzed after 16 h. Each group included 5–6 mice.

FQEFAILVIK [Divalent peptide3A5]
MDSC cell number [1]: reduced the cell population of MDSCs; also recorded: reduces cell number of MDSCs in peripheral blood | caspase-3 activation in SW480 tumors [2]: caused caspase-3 activation | tumor cell proliferation in SW480 tumors [2]: suppressed tumor cell proliferation | MC38 tumor suppression, combination with anti-PD-1 [3]: significantly improved the efficacy of anti-PD-1 therapy; also recorded: increased the efficacy of anti-PD-1 therapy | S100A8-mediated IL-8 secretion [4]: suppressed | S100A8-mediated VEGF secretion [4]: suppressed | induction of cytokines/chemokines [5]: suppress the induction of cytokines/chemokines in both tumor cells and macrophages | tumor growth, divalent peptide3A5 monotherapy [6]: inhibits tumor growth | tumor growth, divalent peptide3A5 monotherapy ([6]; listed as divalent peptide3A5): suppressed tumor progression in a dose-dependent manner; also recorded: dose-dependently inhibited tumor growth; also recorded: inhibited tumor growth in vivo | tumor growth, combination with 5-FU [6]: synergistically inhibits tumor growth with 5-FU combination | tumor growth, combination with 5-FU ([6]; listed as divalent peptide3A5): synergistically suppressed tumor growth | tumor growth, combination with bevacizumab ([6]; divalent peptide3A5 5 mg/kg i.p. + bevacizumab 4 mg/kg i.p.): synergistically suppressed tumor growth; also recorded: synergistically inhibited tumor growth with bevacizumab | pulmonary recruitment of PKH26-labeled LLC cells / lung metastasis [7]: suppresses the pulmonary recruitment of PKH26-labeled LLC cells | inhibition of S100A8-induced phosphorylation of p38 [8]: 1.3 fold | inhibition of S100A8-induced phosphorylation of p65 (NF-κB) [8]: 1.7 fold | LLC tumor growth, monotherapy [9]: suppresses tumor progression | LLC tumor growth, monotherapy ([9]; listed as divalent peptide3A5): inhibited in vivo tumor growth; also recorded: suppressed tumor growth in tumor-bearing mice | LLC tumor, combination with anti-PD-1 antibody ([9]; with anti-PD-1 every 3 days, 5–6 mice per group): improved the efficacy of anti-programmed death (PD)1 antibody; also recorded: increased the efficacy of anti-PD-1 therapy
